Source: paper PMC3723632, “A Multi-targeted Drug Candidate with Dual Anti-HIV and Anti-HSV Activity” (PLoS Pathogens, 2013)
≈ marks a conversion by molar mass, not a printed value.

Key:
Format in all cases: biochemical
HIV-1 RT = molecular target: T1, HIV-1 RT (Human immunodeficiency virus type 1 group M subtype B, UniProt P03366); experiment: HIV-1 reverse transcriptase assay; conditions: dATP (3.2 µM) as competing substrate, poly rU.dA primer/template
T1 construct: 4 µl of recombinant HIV-1 RT
Procedure: […] In the HSV DNA polymerase assays, the inhibitory effect of adefovir-pp or PMEA-DAPym-pp on herpesvirus DNA polymerase-catalyzed polymerization was also determined in the presence of radiolabeled [^3H]dGTP (1 mCi/ml; 2.8 µM), [^3H]dTTP (1 mCi/ml; 1 µM), or [^3H]dCTP (1 mCi/ml; 2.5 µM) as competing dNTP in the presence of 0.8 µl (5 mM) of the other dNTPs in the reaction mixture as described above. The reaction was started by the addition of 4 µl of recombinant HSV-1 DNA polymerase (kindly provided by M.W. Wathen, at that time at Pfizer, Kalamazoo, MI) or 4 µl of recombinant HIV-1 RT (in 20 mM Tris.HCl, pH 8.0; 1 mM DTT; 0.1 mM EDTA; 0.2 M NaCl; 40% glycerol), and the reaction mixture was incubated for 60 min (HSV-1 DNA polymerase) or 30 min (HIV-1 RT) at 37°C. Then, 1 ml of ice-cold 5% TCA in 0.02 M Na4P2O7.10 H2O was added to terminate the polymerisation reaction, after which the acid-insoluble precipitate (radiolabeled DNA) was captured onto Whatman glass fiber filters (type GF/C; GE Healthcare UK Limited, Buckinghamshire, UK) and further washed with 5% TCA and ethanol to remove free radiolabeled dNTP. Radioactivity was determined in a Perkin Elmer Tri-Carb 2810 TR liquid scintillation counter.

HSV DNA polymerase = molecular target: T2, HSV DNA polymerase (Human herpesvirus 1, UniProt P04293); experiment: HSV DNA polymerase assay; conditions: for IC50: gapped calf thymus DNA
T2 construct: gift of M.W. Wathen (Pfizer, Kalamazoo, MI)
Procedure: The reaction mixture (40 µl) for the HSV-1 DNA polymerase and HIV-1 RT assays contained 4 µl of Premix (200 mM Tris.HCl, pH 7.5; 2 mM DTT; 30 mM MgCl2), 4 µl of BSA (5 mg/ml), 1.6 µl of activated calf thymus DNA (1.25 mg/ml), 0.8 µl of dCTP (5 mM), 0.8 µl of dTTP (5 mM), 0.8 µl of dGTP (5 mM), 2 µl of radiolabeled [^3H]dATP (1 mCi/ml) (3.2 µM), 18 µl of H2O, and 4 µl of adefovir-pp or PMEO-DAPym-pp at different concentrations (i.e., 200, 20, 2, and 0.2 µM). In the HSV DNA polymerase assays, the inhibitory effect of adefovir-pp or PMEA-DAPym-pp on herpesvirus DNA polymerase-catalyzed polymerization was also determined in the presence of radiolabeled [^3H]dGTP (1 mCi/ml; 2.8 µM), [^3H]dTTP (1 mCi/ml; 1 µM), or [^3H]dCTP (1 mCi/ml; 2.5 µM) as competing dNTP in the presence of 0.8 µl (5 mM) of the other dNTPs in the reaction mixture as described above. The reaction was started by the addition of 4 µl of recombinant HSV-1 DNA polymerase (kindly provided by M.W. Wathen, at that time at Pfizer, Kalamazoo, MI) or 4 µl of recombinant HIV-1 RT (in 20 mM Tris.HCl, pH 8.0; 1 mM DTT; 0.1 mM EDTA; 0.2 M NaCl; 40% glycerol), and the reaction mixture was incubated for 60 min (HSV-1 DNA polymerase) or 30 min (HIV-1 RT) at 37°C. Then, 1 ml of ice-cold 5% TCA in 0.02 M Na4P2O7.10 H2O was added to terminate the polymerisation reaction, after which the acid-insoluble precipitate (radiolabeled DNA) was captured onto Whatman glass fiber filters (type GF/C; GE Healthcare UK Limited, Buckinghamshire, UK) and further washed with 5% TCA and ethanol to remove free radiolabeled dNTP. Radioactivity was determined in a Perkin Elmer Tri-Carb 2810 TR liquid scintillation counter.

[1] = molecular target: mutant HIV-1 RT enzymes (K65R and K70R); experiment: Mutant HIV-1 RT enzyme inhibition; conditions: K65R and K70R mutant HIV-1 RT, data not shown
Procedure: In all assay systems the drugs were administered prior to, or at the time of, virus infection which is relevant from a microbicidal application viewpoint, for which the drugs are preferentially already present at the time of infection. However, it might well be possible that these drugs are also effective when exposed shortly after virus infection given the DNA polymerase/HIV reverse transcriptase as being one of the intracellular targets of PMEO-DAPym. […] Thus, PMEO-DAPym may have a rather high genetic barrier suppressing a wide variety of clinical HSV and HIV-1 clade isolates, including clinically relevant mutant viruses.

T2 sequence (P04293 whole entry): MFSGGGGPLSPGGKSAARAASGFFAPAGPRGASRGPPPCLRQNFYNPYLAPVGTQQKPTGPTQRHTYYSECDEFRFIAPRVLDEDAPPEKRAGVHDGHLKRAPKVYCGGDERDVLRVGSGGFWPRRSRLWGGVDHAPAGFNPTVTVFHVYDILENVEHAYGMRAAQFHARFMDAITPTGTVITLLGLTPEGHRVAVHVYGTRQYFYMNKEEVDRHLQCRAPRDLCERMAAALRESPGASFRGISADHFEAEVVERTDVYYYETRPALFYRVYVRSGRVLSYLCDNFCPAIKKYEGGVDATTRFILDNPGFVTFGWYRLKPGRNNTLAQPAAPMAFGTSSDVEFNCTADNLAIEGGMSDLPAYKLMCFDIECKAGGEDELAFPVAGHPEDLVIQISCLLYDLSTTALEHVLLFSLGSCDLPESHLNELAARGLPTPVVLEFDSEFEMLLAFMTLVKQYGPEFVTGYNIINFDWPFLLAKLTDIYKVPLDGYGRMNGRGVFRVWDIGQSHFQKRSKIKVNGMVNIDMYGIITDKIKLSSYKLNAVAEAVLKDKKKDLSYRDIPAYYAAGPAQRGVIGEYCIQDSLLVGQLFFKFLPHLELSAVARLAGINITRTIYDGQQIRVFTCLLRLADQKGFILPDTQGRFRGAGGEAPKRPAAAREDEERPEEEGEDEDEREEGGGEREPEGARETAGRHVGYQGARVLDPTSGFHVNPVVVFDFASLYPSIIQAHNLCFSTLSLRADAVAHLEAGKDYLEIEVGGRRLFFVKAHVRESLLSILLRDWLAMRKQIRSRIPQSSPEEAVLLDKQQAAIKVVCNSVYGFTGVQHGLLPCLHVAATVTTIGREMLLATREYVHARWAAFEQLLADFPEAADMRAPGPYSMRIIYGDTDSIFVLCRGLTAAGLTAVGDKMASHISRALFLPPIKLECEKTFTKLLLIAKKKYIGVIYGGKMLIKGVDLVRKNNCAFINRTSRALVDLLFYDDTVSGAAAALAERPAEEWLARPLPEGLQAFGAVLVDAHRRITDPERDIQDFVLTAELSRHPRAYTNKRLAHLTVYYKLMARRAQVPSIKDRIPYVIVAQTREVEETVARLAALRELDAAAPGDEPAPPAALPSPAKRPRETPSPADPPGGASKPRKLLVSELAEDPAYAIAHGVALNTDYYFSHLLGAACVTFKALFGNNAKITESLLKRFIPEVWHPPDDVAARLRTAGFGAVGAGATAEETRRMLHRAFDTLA

Nc1cc(OCCOCP(=O)(O)OP(=O)(O)OP(=O)(O)O)nc(N)n1 [PMEO-DAPym-pp]
IC50 (HIV-1 RT): 0.19 ± 0.21 µg/mL (≈ 0.448 µM) | IC50 (HIV-1 RT; listed as PMEO-DAPym-diphosphate): 0.43 µg/mL (≈ 1.01 µM) | IC50 (HSV DNA polymerase; [3H]dATP as competing substrate): 0.52 ± 0.03 µg/mL (≈ 1.23 µM) | IC50 (HSV DNA polymerase; [3H]dCTP as competing substrate): 5.2 ± 4.8 µg/mL (≈ 12.3 µM) | IC50 (HSV DNA polymerase; [3H]dGTP as competing substrate): 3.1 ± 1.0 µg/mL (≈ 7.31 µM) | IC50 (HSV DNA polymerase; [3H]dTTP as competing substrate): 5.2 ± 0.3 µg/mL (≈ 12.3 µM) | IC50, incorporation of other [3H]dNTPs (HSV DNA polymerase; dCTP, dGTP, dTTP, range): 3.1 to 5.2 µg/mL | IC50 [1]: submicromolar range
